In patent US20240415804A1, “METHOD OF TREATING PANCREATIC CANCER” (University of South Florida, priority 2022, published 2024):

Key:
miR-155 [1] = assay: miR-155 gene expression by RT-qPCR in MiaPaCa-2 cells; assay type: cell-based, human; settings: API 40 μM, 24 h, vs DMSO vehicle
Method: MiR-155 is known to be overexpressed in different cancers, including PC^21, 23. The inventors first assessed whether apigenin could modulate the expression of miR-155 in PC cells. Murine PC cell lines Panc02 and UN-KC-6141 as well as the human PC cell line MiaPaCa-2 were treated with API (40 μM) or DMSO vehicle for 24 h and the expression of miR-155 was examined using RT-qPCR assay. […] Since API is known to inhibit the growth of cancer cells, including PC cells^39-43, 47-50, the same PC cell lines were treated with API (40 μM) or DMSO (vehicle) for 24 h and examined cell viability using MTT assay. […] Moreover, Panc02 and UN-KC-6141 cells were then treated with API at a dose dependent concentration (10, 20, 30, 40, 50 μM) and detected apoptosis using flow cytometry (Annexin V and PI).
miR-155 is implicated in the development of pancreatic tumors from pancreatic intraepithelial neoplasia (PanIN) lesions, and is overexpressed in PC^23. The inventors examined whether the depletion of miR-155 modulated PC viability. Murine and human PC cell lines were transfected with miR-155 inhibitor (i.e., MMU-MIR-155-5P/HSA-MIR-155-5P) and scrambled miRNA at a concentration of 100 nM for 24 h and cell viability determined using an MTT assay. The expression of miR-155 was examined using an RT-qPCR assay as well. […]

miR-155 [2] = assay: miR-155 gene expression in tumors of KC-HPC mice; assay type: in vivo, mouse; settings: API 25 mg/kg IP three times per week for 17 days, vs vehicle
Method: To build on these findings, the inventors then used a novel pancreatic cancer cell line, UN-KC-6141, that resembles human PC due to its expression of a mutated Kras and generated mice harboring these tumor cells, called KC-HPC mice. Such mice were treated with API at a dose of 25 mg/kg (IP) three times per week for 17 days. The inventors examined if API also targets miR-155 and regulates SHIP-1 in the tumors from KC-HPC mouse model. […] The HPC models were euthanized 21-28 days post-injection, while the KC-HPC models were euthanized 16-17 days post-injection. miRNA extraction of PC cells (treated with miR-155 inhibitor and/or API), BM and digested pancreatic tumors cells was performed using a mirVana miRNA Isolation Kit (Applied Biosystems, Waltham, MA, USA) as per the manufacturer's instructions. miRNA was reverse transcribed into cDNA using TaqMan miRNA reverse transcription kit (Applied Biosystems) with gene-specific stem-loop RT primers according to the manufacturer's instructions. cDNA was then loaded onto either mmu-miR-155 or ipu-miR-155 TaqMan miRNA assays (Assay IDs: 002571 and 467534_mat) using TaqMan Fast Universal PCR Master mix (Applied Biosystems) and miR-155 detected with an Eppendorf Master cycler real plex 4. […]

## O=c1cc(-c2ccc(O)cc2)oc2cc(O)cc(O)c12 [API, 40,5,7-Trihydroxyflavone, 5,7-Dihydroxy-2-(4-hydroxyphenyl)-4-benzopyrone]
miR-155 [1]
  miR-155 gene expression: significantly suppressed
miR-155 [2]
  miR-155 gene expression in tumor: significantly reduced
